Laboratory results from patent US20230085307A1, “PYRIDAZINONE COMPOUND AND HERBICIDE” (NISSAN CHEMICAL CORPORATION, priority 2019, published 2023).

What was measured:
southern crabgrass [1] = experiment: Test Example 5: herbicidal effect by foliage application, plastic box (Table 20, symbol F); format: in vivo, southern crabgrass (Digitaria ciliaris); details: foliage application, 320 g/ha, three weeks after application
Summary of the method: (§1)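 Sow seeds spot-wise in sterilized diluvial soil; cover with ~1.5 cm soil. Grow 14 days in greenhouse, 25° C. to 30° C. Spray foliage with emulsion diluted to predetermined amount. Rate effect after 3 weeks.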

windgrass [2] = experiment: Test Example 4: herbicidal effect by soil treatment (Table 19, symbol L); format: in vivo, windgrass (Apera spica-venti); details: amount of applied herbicide 320 g/ha
Summary of the method: (§2)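 Soil-surface application: an emulsion agent diluted with water to the predetermined dose is sprayed uniformly over seeds lying under roughly 1.5 cm of sterilized diluvial soil. Boxes stay in a greenhouse at 25° C. to 30° C. Three weeks later, each species is graded on previously defined criteria.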

chickweed [3] = experiment: Test Example 4: herbicidal effect by soil treatment (Table 19, symbol P); format: in vivo, common chickweed (Stellaria media); details: amount of applied herbicide 320 g/ha
Summary of the method: as §2

false cleavers [4] = experiment: Test Example 4: herbicidal effect by soil treatment (Table 19, symbol Q); format: in vivo, false cleavers (Galium spurium); details: amount of applied herbicide 320 g/ha
Summary of the method: as §2

southern crabgrass [5] = experiment: Test Example 4: herbicidal effect by soil treatment (Table 19, symbol F); format: in vivo, southern crabgrass (Digitaria ciliaris); details: amount of applied herbicide 320 g/ha
Summary of the method: as §2

chickweed [6] = experiment: Test Example 5: herbicidal effect by foliage application, plastic box (Table 20, symbol P); format: in vivo, common chickweed (Stellaria media); details: foliage application, 320 g/ha, three weeks after application
Summary of the method: as §1

Chinese sprangletop = experiment: Test Example 3: herbicidal effect by foliage application, Wagner pot (Table 18, symbol D); format: in vivo, chinese sprangletop (Leptochloa chinensis); details: 320 g/ha
Summary of the method: (§3)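 Plants were sown in alluvial soil held under 0.1–0.5 cm standing water and grown 14 days in a greenhouse at 25–30 °C. An emulsifiable formulation, water-diluted to the set dose, was then sprayed onto the foliage, and effects were scored three weeks later using previously defined criteria.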

green foxtail [7] = experiment: Test Example 5: herbicidal effect by foliage application, plastic box (Table 20, symbol G); format: in vivo, green foxtail (Setaria viridis); details: foliage application, 320 g/ha, three weeks after application
Summary of the method: as §1

blackgrass [8] = experiment: Test Example 5: herbicidal effect by foliage application, plastic box (Table 20, symbol J); format: in vivo, blackgrass (Alopecurus myosuroides); details: foliage application, 320 g/ha, three weeks after application
Summary of the method: as §1

redroot pigweed [9] = experiment: Test Example 4: herbicidal effect by soil treatment (Table 19, symbol N); format: in vivo, redroot pigweed (Amaranthus retroflexus); details: amount of applied herbicide 320 g/ha
Summary of the method: as §2

blackgrass [10] = experiment: Test Example 4: herbicidal effect by soil treatment (Table 19, symbol J); format: in vivo, blackgrass (Alopecurus myosuroides); details: amount of applied herbicide 320 g/ha
Summary of the method: as §2

rice flat sedge = experiment: Test Example 3: herbicidal effect by foliage application, Wagner pot (Table 18, symbol E); format: in vivo, rice flat sedge (Cyperus iria); details: 320 g/ha
Summary of the method: as §3

redroot pigweed [11] = experiment: Test Example 5: herbicidal effect by foliage application, plastic box (Table 20, symbol N); format: in vivo, redroot pigweed (Amaranthus retroflexus); details: foliage application, 320 g/ha, three weeks after application
Summary of the method: as §1

false cleavers [12] = experiment: Test Example 5: herbicidal effect by foliage application, plastic box (Table 20, symbol Q); format: in vivo, false cleavers (Galium spurium); details: foliage application, 320 g/ha, three weeks after application
Summary of the method: as §1

persian speedwell [13] = experiment: Test Example 4: herbicidal effect by soil treatment (Table 19, symbol R); format: in vivo, Persian speedwell (Veronica persica); details: amount of applied herbicide 320 g/ha
Summary of the method: as §2

Italian ryegrass [14] = experiment: Test Example 5: herbicidal effect by foliage application, plastic box (Table 20, symbol K); format: in vivo, Italian ryegrass (Lolium multiflorum); details: foliage application, 320 g/ha, three weeks after application
Summary of the method: as §1

barnyard grass [15] = experiment: Test Example 3: herbicidal effect by foliage application, Wagner pot (Table 18, symbol H); format: in vivo, barnyard grass (Echinochloa crus-galli); details: 320 g/ha
Summary of the method: as §3

wild oat [16] = experiment: Test Example 4: herbicidal effect by soil treatment (Table 19, symbol I); format: in vivo, wild oat (Avena fatua); details: amount of applied herbicide 320 g/ha
Summary of the method: as §2

windgrass [17] = experiment: Test Example 5: herbicidal effect by foliage application, plastic box (Table 20, symbol L); format: in vivo, windgrass (Apera spica-venti); details: foliage application, 320 g/ha, three weeks after application
Summary of the method: as §1

green foxtail [18] = experiment: Test Example 4: herbicidal effect by soil treatment (Table 19, symbol G); format: in vivo, green foxtail (Setaria viridis); details: amount of applied herbicide 320 g/ha
Summary of the method: as §2

persian speedwell [19] = experiment: Test Example 5: herbicidal effect by foliage application, plastic box (Table 20, symbol R); format: in vivo, Persian speedwell (Veronica persica); details: foliage application, 320 g/ha, three weeks after application
Summary of the method: as §1

velvetleaf [20] = experiment: Test Example 5: herbicidal effect by foliage application, plastic box (Table 20, symbol M); format: in vivo, velvetleaf (Abutilon theophrasti); details: foliage application, 320 g/ha, three weeks after application
Summary of the method: as §1

lambsquarters [21] = experiment: Test Example 4: herbicidal effect by soil treatment (Table 19, symbol O); format: in vivo, lambsquarters (Chenopodium album); details: amount of applied herbicide 320 g/ha
Summary of the method: as §2

barnyard grass [22] = experiment: Test Example 5: herbicidal effect by foliage application, plastic box (Table 20, symbol H); format: in vivo, barnyard grass (Echinochloa crus-galli); details: foliage application, 320 g/ha, three weeks after application
Summary of the method: as §1

velvetleaf [23] = experiment: Test Example 4: herbicidal effect by soil treatment (Table 19, symbol M); format: in vivo, velvetleaf (Abutilon theophrasti); details: amount of applied herbicide 320 g/ha
Summary of the method: as §2

Italian ryegrass [24] = experiment: Test Example 4: herbicidal effect by soil treatment (Table 19, symbol K); format: in vivo, Italian ryegrass (Lolium multiflorum); details: amount of applied herbicide 320 g/ha
Summary of the method: as §2

barnyard grass [25] = experiment: Test Example 4: herbicidal effect by soil treatment (Table 19, symbol H); format: in vivo, barnyard grass (Echinochloa crus-galli); details: amount of applied herbicide 320 g/ha
Summary of the method: as §2

wild oat [26] = experiment: Test Example 5: herbicidal effect by foliage application, plastic box (Table 20, symbol I); format: in vivo, wild oat (Avena fatua); details: foliage application, 320 g/ha, three weeks after application
Summary of the method: as §1

lambsquarters [27] = experiment: Test Example 5: herbicidal effect by foliage application, plastic box (Table 20, symbol O); format: in vivo, lambsquarters (Chenopodium album); details: foliage application, 320 g/ha, three weeks after application
Summary of the method: as §1

SMILES	herbicidal effect grade, F: southern crabgrass (southern crabgrass [1])	herbicidal effect rating, L: windgrass (windgrass [2])	herbicidal effect rating, P: chickweed (chickweed [3])	herbicidal effect rating, Q: false cleavers (false cleavers [4])	herbicidal effect rating, F: southern crabgrass (southern crabgrass [5])	herbicidal effect grade, P: chickweed (chickweed [6])	herbicidal effect on D (Chinese sprangletop), rating 0-5 (Chinese sprangletop)	herbicidal effect grade, G: green foxtail (green foxtail [7])	herbicidal effect grade, J: blackgrass (blackgrass [8])	herbicidal effect rating, N: redroot pigweed (redroot pigweed [9])	herbicidal effect rating, J: blackgrass (blackgrass [10])	herbicidal effect on E (rice flat sedge), rating 0-5 (rice flat sedge)	herbicidal effect grade, N: redroot pigweed (redroot pigweed [11])	herbicidal effect grade, Q: false cleavers (false cleavers [12])	herbicidal effect rating, R: persian speedwell (persian speedwell [13])	herbicidal effect grade, K: Italian ryegrass (Italian ryegrass [14])	herbicidal effect on H (barnyard grass), rating 0-5 (barnyard grass [15])	herbicidal effect rating, I: wild oat (wild oat [16])	herbicidal effect grade, L: windgrass (windgrass [17])	herbicidal effect rating, G: green foxtail (green foxtail [18])	also measured
Cc1nn(C)c(=O)c(-c2c(-c3ccc(F)c(F)c3)sc3ccccc23)c1O [1-046]	4 (Herbicidal rate of 70% or more and less than 90%)	0 (Herbicidal rate of 5% or less (almost no effect))	5 (Herbicidal rate of 90% or more (almost completely withered))	5 (Herbicidal rate of 90% or more (almost completely withered))	0 (Herbicidal rate of 5% or less (almost no effect))	5 (Herbicidal rate of 90% or more (almost completely withered))	0 (Herbicidal rate of 5% or less (almost no effect))	4 (Herbicidal rate of 70% or more and less than 90%)	0 (Herbicidal rate of 5% or less (almost no effect))	0 (Herbicidal rate of 5% or less (almost no effect))	0 (Herbicidal rate of 5% or less (almost no effect))	5 (Herbicidal rate of 90% or more (almost completely withered))	5 (Herbicidal rate of 90% or more (almost completely withered))	5 (Herbicidal rate of 90% or more (almost completely withered))	5 (Herbicidal rate of 90% or more (almost completely withered))	3 (Herbicidal rate of 40% or more and less than 70%)	3 (Herbicidal rate of 40% or more and less than 70%)	0 (Herbicidal rate of 5% or less (almost no effect))	0 (Herbicidal rate of 5% or less (almost no effect))	0 (Herbicidal rate of 5% or less (almost no effect))	herbicidal effect grade, R: persian speedwell (persian speedwell [19]): 5 (Herbicidal rate of 90% or more (almost completely withered)); herbicidal effect grade, M: velvetleaf (velvetleaf [20]): 5 (Herbicidal rate of 90% or more (almost completely withered)); herbicidal effect rating, O: lambsquarters (lambsquarters [21]): 0 (Herbicidal rate of 5% or less (almost no effect)); herbicidal effect grade, H: barnyard grass (barnyard grass [22]): 4 (Herbicidal rate of 70% or more and less than 90%); herbicidal effect rating, M: velvetleaf (velvetleaf [23]): 0 (Herbicidal rate of 5% or less (almost no effect)); herbicidal effect rating, K: Italian ryegrass (Italian ryegrass [24]): 0 (Herbicidal rate of 5% or less (almost no effect)); herbicidal effect rating, H: barnyard grass (barnyard grass [25]): 0 (Herbicidal rate of 5% or less (almost no effect)); herbicidal effect grade, I: wild oat (wild oat [26]): 3 (Herbicidal rate of 40% or more and less than 70%); herbicidal effect grade, O: lambsquarters (lambsquarters [27]): 4 (Herbicidal rate of 70% or more and less than 90%)
COc1cccc(-c2sc3ccccc3c2-c2c(O)c(C)nn(C)c2=O)c1F [1-048]	0 (Herbicidal rate of 5% or less (almost no effect))	0 (Herbicidal rate of 5% or less (almost no effect))	3 (Herbicidal rate of 40% or more and less than 70%)	0 (Herbicidal rate of 5% or less (almost no effect))	0 (Herbicidal rate of 5% or less (almost no effect))	5 (Herbicidal rate of 90% or more (almost completely withered))	5 (Herbicidal rate of 90% or more (almost completely withered))	0 (Herbicidal rate of 5% or less (almost no effect))	0 (Herbicidal rate of 5% or less (almost no effect))	0 (Herbicidal rate of 5% or less (almost no effect))	0 (Herbicidal rate of 5% or less (almost no effect))	4 (Herbicidal rate of 70% or more and less than 90%)	0 (Herbicidal rate of 5% or less (almost no effect))	0 (Herbicidal rate of 5% or less (almost no effect))	1 (Herbicidal rate of 5% or more and less than 20%)	0 (Herbicidal rate of 5% or less (almost no effect))	4 (Herbicidal rate of 70% or more and less than 90%)	0 (Herbicidal rate of 5% or less (almost no effect))	0 (Herbicidal rate of 5% or less (almost no effect))	0 (Herbicidal rate of 5% or less (almost no effect))	herbicidal effect grade, R: persian speedwell (persian speedwell [19]): 4 (Herbicidal rate of 70% or more and less than 90%); herbicidal effect grade, M: velvetleaf (velvetleaf [20]): 0 (Herbicidal rate of 5% or less (almost no effect)); herbicidal effect rating, O: lambsquarters (lambsquarters [21]): 0 (Herbicidal rate of 5% or less (almost no effect)); herbicidal effect grade, H: barnyard grass (barnyard grass [22]): 0 (Herbicidal rate of 5% or less (almost no effect)); herbicidal effect rating, M: velvetleaf (velvetleaf [23]): 0 (Herbicidal rate of 5% or less (almost no effect)); herbicidal effect rating, K: Italian ryegrass (Italian ryegrass [24]): 0 (Herbicidal rate of 5% or less (almost no effect)); herbicidal effect rating, H: barnyard grass (barnyard grass [25]): 0 (Herbicidal rate of 5% or less (almost no effect)); herbicidal effect grade, I: wild oat (wild oat [26]): 0 (Herbicidal rate of 5% or less (almost no effect)); herbicidal effect grade, O: lambsquarters (lambsquarters [27]): 0 (Herbicidal rate of 5% or less (almost no effect))
